Measurements published in paper PMC5216056 (Nature Communications, 2017).
“And” between values parts separate entries of the source, which are not always exact repeats. Equal values may be shown once. Read-outs that look alike come from different tables or passages of the source.

What was measured:
[1] = molecular target: T1, mCB1R (Mus musculus, UniProt P47746); test: biochemical; details: for Emax: read-out: Emax cAMP mCB1R
T1 construct: from tissue; host or cells: brain of male C57BL/6J mice

[2] = molecular target: T2, MAGL (Homo sapiens, UniProt Q99685); test: Biochemical MAGL activity assay; details: for inhibition at 10 µM: read-out: MAGL % inhibition at 10 µM ± SD
T2 construct: expressed in transfected cells; host or cells: HEK293T (transient), membrane preparation
T2 sequence (Q99685 1-303): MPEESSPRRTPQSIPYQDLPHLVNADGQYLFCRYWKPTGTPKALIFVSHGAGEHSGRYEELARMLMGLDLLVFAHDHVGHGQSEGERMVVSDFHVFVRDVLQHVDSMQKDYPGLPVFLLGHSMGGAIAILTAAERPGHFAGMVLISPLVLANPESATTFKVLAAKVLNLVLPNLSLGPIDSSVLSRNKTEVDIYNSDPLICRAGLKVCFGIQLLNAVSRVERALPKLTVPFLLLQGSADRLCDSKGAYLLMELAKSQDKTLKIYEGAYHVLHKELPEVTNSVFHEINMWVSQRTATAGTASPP
Experimental: Cell culture and membrane preparation were performed as previously described. HEK293T cells (source: Dutch Cancer Institute) were grown in DMEM with stable glutamine and phenolred (PAA), 10% New Born Calf serum, penicillin and streptomycin. Cells were passaged every 2–3 days by resuspending in medium and seeding them to appropriate confluence. Membranes were prepared from transiently transfected HEK293T cells. One day prior to transfection 10^7 cells were seeded in a 15 cm petri dish. Cells were transfected by the addition of a 3:1 mixture of polyethyleneimine (60 μg) and plasmid DNA (20 μg) in 2 ml serum-free medium. The medium was refreshed after 24 h, and after 72 h the cells were harvested by suspending them in 20 ml medium. The suspension was centrifuged for 10 min at 1000, rpm, and the supernatant was removed. The cell pellet was stored at −80 °C until use. Cell pellets were thawed on ice and suspended in lysis buffer A (20 mM HEPES, 2 mM DTT, 0.25 M sucrose, 1 mM MgCl2, […] Benzonase). The suspension was homogenized by polytrone (3 × 7 s) and incubated for 30 min on ice. The suspension was subjected to ultracentrifugation (100,000 × g, 30 min, 4 °C, Beckman Coulter, Type Ti70 rotor) to yield the cytosolic fraction in the supernatant and the membrane fraction as a pellet. The pellet was resuspended in lysis buffer B (20 mM HEPES, 2 mM DTT). The protein concentration was determined with Quick Start Bradford assay (Biorad). The protein fractions were diluted to a total protein concentration of 1 mg ml^−1 and stored in small aliquots at −80 °C until use.
Percentage of inhibition of reference ligands was determined in comparison with an untreated control. […] Fluorescence was measured in 5 min intervals for 60 min.

[3] = molecular target: hCB2R (Homo sapiens, UniProt P34972); test: biochemical; assay type: binding
[4] = molecular target: T3, alpha 2A (h) (Homo sapiens, UniProt P08913); test: CEREP panel; assay type: binding; details: for inhibition at 10 µM: read-out: % inhibition alpha 2A (h)
T3 construct: CEREP
T3 sequence (P08913 1-465): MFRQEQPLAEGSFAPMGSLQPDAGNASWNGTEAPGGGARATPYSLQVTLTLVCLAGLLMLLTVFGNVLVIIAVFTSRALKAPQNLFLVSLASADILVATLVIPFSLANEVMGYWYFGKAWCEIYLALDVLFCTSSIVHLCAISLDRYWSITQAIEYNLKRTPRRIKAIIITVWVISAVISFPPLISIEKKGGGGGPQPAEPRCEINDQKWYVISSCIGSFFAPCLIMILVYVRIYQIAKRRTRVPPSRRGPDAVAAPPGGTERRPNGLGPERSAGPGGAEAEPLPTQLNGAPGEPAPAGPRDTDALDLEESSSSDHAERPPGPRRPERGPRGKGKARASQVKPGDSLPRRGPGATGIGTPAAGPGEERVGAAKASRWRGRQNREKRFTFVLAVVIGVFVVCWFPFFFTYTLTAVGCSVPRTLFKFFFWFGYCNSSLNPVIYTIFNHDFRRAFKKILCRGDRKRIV

[5] = molecular target: T4, PPARgamma (h) (Homo sapiens, UniProt P37231); test: CEREP panel; assay type: binding; details: for inhibition at 10 µM: read-out: % inhibition PPARgamma (h)
T4 construct: CEREP (contract assay)
T4 sequence (P37231 1-505): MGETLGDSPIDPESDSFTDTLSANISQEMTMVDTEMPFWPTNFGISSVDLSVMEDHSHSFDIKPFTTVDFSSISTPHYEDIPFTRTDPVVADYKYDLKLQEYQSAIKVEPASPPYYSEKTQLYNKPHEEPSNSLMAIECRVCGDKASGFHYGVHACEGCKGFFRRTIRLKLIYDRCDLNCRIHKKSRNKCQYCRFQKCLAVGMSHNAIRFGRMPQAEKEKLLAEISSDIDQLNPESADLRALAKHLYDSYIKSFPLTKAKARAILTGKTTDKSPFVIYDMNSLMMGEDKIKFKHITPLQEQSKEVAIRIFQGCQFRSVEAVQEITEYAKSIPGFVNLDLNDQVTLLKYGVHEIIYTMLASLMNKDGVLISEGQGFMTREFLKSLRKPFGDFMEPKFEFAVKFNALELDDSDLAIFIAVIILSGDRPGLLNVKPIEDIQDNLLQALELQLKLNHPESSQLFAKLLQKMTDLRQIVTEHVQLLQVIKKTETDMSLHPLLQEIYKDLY

[6] = molecular target: T5, A1 (h) (Homo sapiens, UniProt P30542); test: CEREP panel; assay type: binding; details: for inhibition at 10 µM: read-out: % inhibition A1 (h)
T5 construct: CEREP
T5 sequence (P30542 1-326): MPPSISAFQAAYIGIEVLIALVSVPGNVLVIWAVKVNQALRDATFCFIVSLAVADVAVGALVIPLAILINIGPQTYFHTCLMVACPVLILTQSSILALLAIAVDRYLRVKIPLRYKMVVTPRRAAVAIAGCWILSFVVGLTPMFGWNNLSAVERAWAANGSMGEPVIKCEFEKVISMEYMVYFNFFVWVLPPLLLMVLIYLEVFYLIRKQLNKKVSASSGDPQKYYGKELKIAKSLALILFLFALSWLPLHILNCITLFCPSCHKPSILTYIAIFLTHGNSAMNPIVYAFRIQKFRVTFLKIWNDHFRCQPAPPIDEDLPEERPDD

[7] = CHO membranes, Leiden, HU210 and SR144528 from Roche

T1 sequence (P47746 whole entry): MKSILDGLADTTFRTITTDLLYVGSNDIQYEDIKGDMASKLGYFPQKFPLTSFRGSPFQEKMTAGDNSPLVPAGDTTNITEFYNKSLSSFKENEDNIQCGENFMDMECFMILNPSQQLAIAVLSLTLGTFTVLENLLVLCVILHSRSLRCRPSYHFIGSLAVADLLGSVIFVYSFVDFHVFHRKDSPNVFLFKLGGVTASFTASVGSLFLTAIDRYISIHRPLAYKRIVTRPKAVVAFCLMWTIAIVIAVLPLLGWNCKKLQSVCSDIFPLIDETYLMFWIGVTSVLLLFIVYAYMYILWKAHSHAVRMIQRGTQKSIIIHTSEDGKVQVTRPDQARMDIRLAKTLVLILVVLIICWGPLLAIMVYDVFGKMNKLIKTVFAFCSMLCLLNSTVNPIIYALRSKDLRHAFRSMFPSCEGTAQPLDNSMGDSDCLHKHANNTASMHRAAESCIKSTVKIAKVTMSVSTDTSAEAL
hCB2R, sequence (P34972 whole entry): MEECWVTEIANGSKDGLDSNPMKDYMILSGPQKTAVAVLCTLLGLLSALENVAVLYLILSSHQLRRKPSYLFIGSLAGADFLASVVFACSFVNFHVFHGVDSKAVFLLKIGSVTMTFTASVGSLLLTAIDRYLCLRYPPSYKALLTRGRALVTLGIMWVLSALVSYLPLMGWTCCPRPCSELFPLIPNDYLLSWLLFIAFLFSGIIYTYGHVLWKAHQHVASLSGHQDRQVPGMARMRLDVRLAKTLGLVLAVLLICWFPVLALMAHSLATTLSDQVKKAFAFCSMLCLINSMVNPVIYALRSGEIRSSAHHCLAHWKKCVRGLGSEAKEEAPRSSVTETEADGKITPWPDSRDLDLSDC

Molecule	Emax cAMP mCB1R [1]	MAGL % inhibition at 10 µM ± SD [2]	pKi ± SEM hCB2R [3, 7]	inhibition at 10 µM [2]	pEC50 ± SEM cAMP mCB1R ([1]; mouse brain)	% inhibition alpha 2A (h) ([4]; 10 µM)	% inhibition PPARgamma (h) ([5]; 10 µM)	% inhibition A1 (h) ([6]; 10 µM)	also measured
CN1CCCCC1Cn1cc(C(=O)c2cc([N+](=O)[O-])ccc2I)c2ccccc21 (racemic) [(rac)-AM1241]	21	-2 ± 17%	8.39 ± 0.10	–	–	–	–	–	pEC50 ± SEM cAMP mCB1R [1]: < 5; CB2R Selectivity (binding, human) [3]: 32
CCCCC/C=C\C/C=C\C/C=C\C/C=C\CCCC(=O)OC(CO)CO [2-AG, 2-arachidonoyl glycerol]	–	–	–	3 ± 15%	–	–	–	–	EC50 ([1]; mouse brain, read-out: pEC50 ± SEM cAMP mCB1R (converted)): > 6310 nM and 6920 nM; Ki ([3]; CHO membranes, Leiden, HU210 and SR144528 from Roche, read-out: pKi ± SEM hCB2R (converted)): ~100 nM and 115 nM
CN1CCCC[C@@H]1Cn1cc(C(=O)c2cc([N+](=O)[O-])ccc2I)c2ccccc21 [(R)-AM1241]	32	-2 ± 18%	8.44 ± 0.25	–	5.08 ± 0.16	–	–	–	CB2R Selectivity (binding, human) ([3]; 10^(pKi CB2R-pKi CB1R)): 38 fold
CN1CCCC[C@H]1Cn1cc(C(=O)c2cc([N+](=O)[O-])ccc2I)c2ccccc21 [(S)-AM1241]	16	-4 ± 18%	7.02 ± 0.15	–	5.43 ± 0.42	10%	23%	14%	–
Cc1c(C(=O)NN2CCCCC2)nn(-c2ccc(Cl)cc2Cl)c1-c1ccc(I)cc1 [AM251]	–	0 ± 16%	–	–	–	30%	55%	27%	–
COc1ccc(C(=O)c2c(C)n(CCN3CCOCC3)c3cc(I)ccc23)cc1 [AM630]	13	4 ± 16%	–	–	< 5	-5%	99%	28%	pKi ± SEM hCB2R [3]: 7.39 ± 0.02
CCCCC/C=C\C/C=C\C/C=C\C/C=C\CCCC(=O)NCCO [Anandamide, N-arachidonoylethanolamine]	–	–	–	-2 ± 19%	–	–	–	–	Emax [1]: < 70%
CCCCCCC(C)(C)c1ccc([C@@H]2C[C@H](O)CC[C@H]2CCCO)c(O)c1 [CP55940]	–	–	–	5 ± 16%	–	–	–	–	inhibition at 10 µM ([4]; 10 µM): 23%; inhibition at 10 µM ([5]; 10 µM): 85%; EC50 ([1]; pEC50 ± SEM cAMP mCB1R): 0.00603 nM; Emax [1]: 100%; inhibition at 10 µM ([6]; 10 µM): 21%
Cc1ccc2c(c1)Cc1c(C(=O)NN3CCCCC3)nn(-c3ccc(Cl)cc3Cl)c1-2 [Gp-1a]	–	-1 ± 15%	7.66 ± 0.11	–	5.86 ± 0.42	30%	86%	25%	Emax cAMP mCB1R ([1]; normalized to 10 µM CP55940): -28%
CCCCCCC(C)(C)c1cc(OC)c([C@@H]2C=C(CO)[C@@H]3C[C@H]2C3(C)C)c(OC)c1 [HU308]	–	–	–	7 ± 13%	–	–	–	–	inhibition at 10 µM [4]: -6%; inhibition at 10 µM [5]: 14%; EC50 ([1]; pEC50 ± SEM cAMP mCB1R, mouse brain): > 10000 nM; Emax [1]: 10%; inhibition at 10 µM [6]: 5%
CCCCCCC(C)(C)c1cc(OC)c(C2=C[C@H]3CC[C@]2(CO)C3(C)C)c(OC)c1 [HU910]	–	20 ± 12%	7.22 ± 0.31	–	< 5	7%	17%	23%	Emax cAMP mCB1R ([1]; normalized to 10 µM CP55940): 36%
CCCn1c(C)c(C(=O)c2cccc3ccccc23)c2ccccc21 [JWH015]	–	0 ± 17%	–	–	< 5	1%	67%	10%	Emax cAMP mCB1R ([1]; normalized to 10 µM CP55940): 29%
CCCC(C)(C)c1ccc2c(c1)OC(C)(C)[C@@H]1CC=C(C)C[C@@H]21 [JWH133]	11	-20 ± 5%	–	–	–	-18%	-5%	-6%	pEC50 ± SEM cAMP mCB1R [1]: < 5; CB2R Selectivity (binding, human) [3]: 153 fold; pKi ± SEM hCB2R [3]: 7.18 ± 0.34
Cc1c(C(=O)NN2CCCCC2)nn(-c2ccc(Cl)cc2Cl)c1-c1ccc(Cl)cc1 [SR141716A]	–	–	–	4 ± 18%	–	–	–	–	–
Cc1c(C(=O)c2cccc3ccccc23)c2cccc3c2n1[C@H](CN1CCOCC1)CO3 [WIN55212-2]	–	3 ± 18%	–	–	–	0%	39%	10%	–
SR144528	–	3 ± 16%	–	–	–	-5%	31%	4%	Emax cAMP mCB1R ([1]; normalized to 10 µM CP55940): -39%
